Measured values published in patent US9458194B2, “Compounds useful in the treatment and/or care of the skin and their cosmetic or pharmaceutical compositions” (Lubrizol Advanced Materials, Inc., priority 2013, dated 2016).

Columns and labels:
Type in all cases: cell-based
LOXL1 = experiment: Immunofluorescence of LOXL1 protein expression in human dermal fibroblasts; settings: 48 hours, HDFa
Procedure: (§1) In this experiment the number of times that the expression of the proteins fibulin-5 and LOXL1 in human dermal fibroblasts is increased with regard to the basal levels in untreated cells (negative control) when treating the cells with 0.5 mg/ml of the product Ac-L-Asp-L-Val-L-Lys-L-Tyr-OH and it is compared with the effect of Interleukin-1β (IL-1β) at 20 ng/ml and TGF-β at 5 ng/ml (positive controls), which increase an average of 1.5 times and 2 times, respectively, the expression of these proteins, in the same conditions.
Adult human dermal fibroblasts were seeded (HDFa) (2.5×10^3 cells/well) in a 96-well transparent plate, treated with polylysine, and were incubated in complete medium 106 for 72 hours at 37° C. in an atmosphere with 5% CO2. After the incubation, the cells were treated with the different compounds in complete medium 106 for 48 hours at 37° C. in an atmosphere with 5% CO2. As positive controls of increase of the expression of the proteins fibulin-5 and LOXL1, 5 ng/ml of TGF-β and 20 ng/ml of IL-1β were used and as a negative control untreated cells were used, just with complete medium 106. The incubations and the treatments were carried out in quadruplicate for each condition. After the treatment, the levels of expression of both proteins were quantified relatively by using specific fluorescent antibodies, photographic recording by microscopy and subsequent quantification of the fluorescent signal using image processing software, the number of total cells by fluorescent staining of the nuclei (DAPI) and subsequent quantification in the same images. […] 16 hours later all the samples were stained with DAPI (4′,6-Diamidino-2-Phenylindole), fluorescent marker for the staining of nuclei, and the photographic recording was carried out by fluorescence microscopy in a Leica microscope. 2-4 images were taken per condition and per protein and the fluorescent signals were quantified (IOD) corresponding to each protein and the nuclei by means of image analysis software. […]

fibulin-5 = experiment: Immunofluorescence of fibulin-5 protein expression in human dermal fibroblasts; settings: for Increase in the expression of the protein fibulin-5 with regard to the negative control: 48 hours, HDFa; for Average increase of the expression of the proteins fibulin-5 and LOXL1: positive control, average for both proteins
Procedure: as §1
Adult human dermal fibroblasts were seeded (HDFa) (2.5×10^3 cells/well) in a 96-well transparent plate, treated with polylysine, and were incubated in complete medium 106 for 72 hours at 37° C. in an atmosphere with 5% CO2. After the incubation, the cells were treated with the different compounds in complete medium 106 for 48 hours at 37° C. in an atmosphere with 5% CO2. As positive controls of increase of the expression of the proteins fibulin-5 and LOXL1, 5 ng/ml of TGF-β and 20 ng/ml of IL-1β were used and as a negative control untreated cells were used, just with complete medium 106. The incubations and the treatments were carried out in quadruplicate for each condition. After the treatment, the levels of expression of both proteins were quantified relatively by using specific fluorescent antibodies, photographic recording by microscopy and subsequent quantification of the fluorescent signal using image processing software, the number of total cells by fluorescent staining of the nuclei (DAPI) and subsequent quantification in the same images. For the determination of the expression of the proteins fibulin-5 and LOXL1 the cells were washed with PBS 48 hours after the treatments and were fixed with paraformaldehyde. Next, duplicates of each treatment were used to mark separately the fibulin-5 and LOXL1 proteins. For each of the proteins a specific primary monoclonal antibody was used (Abcam). After the primary incubation, the cells were washed with PBS and the secondary marking was carried out with specific fluorescent polyclonal antibodies for each primary antibody. For fibulin-5 an Alexa Fluor® 594 (red) secondary antibody was used and for LOXL1 an Alexa Fluor® 488 (green) secondary antibody was used. 16 hours later all the samples were stained with DAPI (4′,6-Diamidino-2-Phenylindole), fluorescent marker for the staining of nuclei, and the photographic recording was carried out by fluorescence microscopy in a Leica microscope. 2-4 images were taken per condition and per protein and the fluorescent signals were quantified (IOD) corresponding to each protein and the nuclei by means of image analysis software. The fibulin-5 and LOXL1 signals were normalized according to the number of total nuclei for each image. 3 independent assays were carried out.

elastin = experiment: Elastin synthesis in human dermal fibroblasts (Fastin Elastin Assay); settings: positive control, 10 ng/mL, 48 hours, vs negative control
Procedure: Stimulation of elastin synthesis induced by Ac-L-Asp-L-Val-L-Lys-L-Tyr-OH was evaluated by means of a quantitative method of staining, Fastin Elastin Assay (Tebu-Bio). Human dermal fibroblasts were trypsinized and seeded at a density of 7×10^4 cells/well in 6-well plates. After 72 hours of incubation at 37° C., 5% CO2, with a humidified atmosphere, a new medium was added with 0.01 μg/mL Ac-L-Asp-L-Val-L-Lys-L-Tyr-OH. Untreated cells were used as negative controls and cells treated with TGF-1β (Peprotech) were used as positive controls. The cells were incubated for an additional 48 hours at 37° C., 5% CO2, with humidified atmosphere. Subsequently, the elastin was solubilized and extracted, for which the cells were washed twice with PBS (Sigma) and a solution was added to uncouple the cells (Cell Dissociation Solution, Sigma). The suspension of cells was transferred to centrifuge tubes, 1 M Oxalic Acid was added provided by the kit and they were incubated at 100° C. for 1 hour. Once the elastin became soluble, a calibration curve was prepared with the elastin provided with the kit. From that point, the samples and dilutions of the calibration curve were processed following the kit instructions to isolate and stain the elastin. Lastly, the dye was extracted and the absorbency reading was carried out at a wave length of 540 nm in a TECAN GENios spectrophotometric reader.

[1] = test system: human fibulin-5 gene promoter; experiment: Luminescence assay of human fibulin-5 gene promoter activation (Firefly luciferase); settings: positive control, 10 ng/mL
Procedure: (§2) The effect of the compounds of the invention on the activity of the fibulin-5 and LOXL1 promoters was studied and compared to the levels of basal expression of the untreated cells (negative control) and with the effect of Interleukin-1β (IL-1β) in the same conditions.
(§3) Cells from an epithelial cell line doubly transfected with fibulin-5 and LOXL1 human promoters in which the luciferase gene is under the regulatory control of said promoters (4×10^4 cells/well) were seeded in a white plate and in a 96-well transparent plate, both treated with polylysine, and were incubated in Dulbecco's Modified Eagle Medium (DMEM-Glutamax™), with 10% of FBS, 1% Penicillin-Streptomycin (P/S), 1 mg/ml of Geneticin® (G418) and […] at 37° C. in at atmosphere with 5% CO2. After the incubation, the cells were incubated for 6 hours at 37° C. in at atmosphere with 5% CO2 with DMEM without serum. Then, this medium was removed and the cells were treated with different compounds at 0.1 mg/ml, 0.5 mg/ml, 1 mg/ml or 2 mg/mL in DMEM/1% FBS for 16-24 hours. As a positive control to activate the fibulin-5 and LOXL1 promoters 10 ng/ml of IL-1β were used and as a negative control untreated cells were used, just with DMEM/1% FBS. The incubations and treatments were carried out in parallel in the white plate and the transparent plate and in triplicate for each condition. After the treatment, the relative light units per second were determined (RLU/s) in the white plate by means of consecutive quantification of the activities of Firefly luciferase (fibulin-5 promoter) and Renilla luciferase (LOXL1 promoter), and the number of total cells/well in the transparent plate by means of staining with Crystal Violet (CV). To determine the Firefly and Renilla luciferase activities the Dual-Glo Luciferase Assay System kit by Promega was used. The cells were briefly lysed and the Firefly luciferase substrate was added. After incubating for 10 min at 25° C., the RLU/s were quantified by luminescence reader (Lumistar-BMG). Then the Firefly signal was extinguished and the Renilla luciferase substrate was added. After incubating for 5 min at 25° C., the RLU/s were quantified by the same luminescence reader. With regard to the determination of the total number of cells by Crystal Violet, the CV dyes the DNA of the cells and the quantity of dye taken by the cells can be measured in an absorbency reader at 630 nm (Multiskan Ascent). The color obtained is directly proportional to the total number of cells per well. The cells were briefly incubated with 0.05% CV plus 4% Formalin for 20 minutes and after several washes with Milli-Q water, the cells were left to dry for 1-2 hours and then 0.1 M of HCl was added for its immediate reading. The RLU/s of the luciferases corresponding to each promoter were normalized by the average of the total number of cells per condition. Three independent assays with 3 measurements per assay were carried out for Ac-L-Asp-L-Val-L-Lys-L-Tyr-OH at 0.1 mg/mL and 1 mg/mL. 1 assay with 3 measurements was carried out for the other compounds and concentrations.
(§4) The increase in the activity of the promoters with regard to the levels of expression of the negative control was determined.

[2] = test system: human LOXL1 gene promoter; experiment: Luminescence assay of human LOXL1 gene promoter activation (Renilla luciferase); settings: positive control, 10 ng/mL
Procedure: as §2, §3, §4

TGF-β was tested, and the “Increase in the expression of the protein LOXL1 with regard to the negative control” value (LOXL1; 5 ng/mL) was 45.93%, the “Increase in the expression of the protein fibulin-5 with regard to the negative control” value (fibulin-5; 5 ng/mL) was 147.72% and the “Average increase of the expression of the proteins fibulin-5 and LOXL1” value (fibulin-5; 5 ng/ml) was 2 times.

“TGF-1β: TGF-1β (Peprotech), positive control in the elastin synthesis assay [reference compound]” was tested, and the “INCREASE IN ELASTIN SYNTHESIS” value (elastin) was 35.6%.

For “IL-1β: Interleukin-1β, positive control to activate the fibulin-5 and LOXL1 promoters and increase expression of the proteins [reference compound]”, the “Increase in the expression of the protein LOXL1 with regard to the negative control” value (LOXL1; 20 ng/mL) was 87.50%, the “Increase in the expression of the protein fibulin-5 with regard to the negative control” value (fibulin-5; 20 ng/mL) was 42.07% and the “Average increase of the expression of the proteins fibulin-5 and LOXL1” value (fibulin-5; 20 ng/ml) was 1.5 times. The “Increase in the activity of the human promoter of the FIBULIN 5 gene with regard to the negative control” value [1] was 80.40% and the “Increase in the activity of the human promoter of the LOXL1 gene with regard to the negative control” value [2] was 156.26%.
